We go through three sequences from patent publication US8440206B2 (priority 2006, dated 2013).

The test system of the assay is CD8+ T cells. The format is cell-based, human.
For the sequence ELPQWLSANR, the “#SFU” value was less than 10.
With QTVEDEARRMW the figure was 84; with RADEEQQQAL, 120.
